Assay [1] has as its system MRSA. As to the kind of experiment: Time-kill curve. Particulars: ~10^5 CFU mL^−1 in MH broth. It is filed as cell-based, methicillin-resistant Staphylococcus aureus. As to the method: (§1) Bacteria in the logarithmic growth phase were diluted to approximately 10^5 CFU mL^−1 in MH broth and treated with peptides, polymyxin B, or vancomycin at final concentrations of 1/2 × MIC, 1 × MIC, 2 × MIC, and 4 × MIC. After the addition of the test compound, samples were taken at 0, 3, 6, 9, 12, and 24 h and serially diluted. Subsequently, 5 µL of the diluted samples were spread on agar plates and incubated at 37°C for 20 h. The bacterial concentration CFU mL^−1 at the corresponding time point of each sample was calculated based on the number of colonies on the agar plate, and the log10 (CFU mL^−1) was plotted against time (h).

For assay [2], the system named is CRAB 2210186. It is filed as cell-based, carbapenem-resistant Acinetobacter baumannii. As to the method: (§2) The MIC of all peptides was determined using the microdilution broth method in a 96-well plate. Peptides were dissolved in the DMSO with an initial concentration of 12,800 µg mL^−1. And cells of eight strains were separately suspended in the MHB at a density of approximately 10^5 CFU mL^−1. In the first column of the 96-well plate, 16 µL of peptide and 184 µL of MHB were added to each well to achieve a final concentration of 1,024 µg mL^−1. One-hundred microliters of MHB was added to each of the remaining wells. Then the first column of liquid was mixed well and diluted to the 12th column using the twofold dilution method. One-hundred microliters of prepared bacterial solution was added to all wells, and the 96-well plate was incubated at 37°C for 18–24 h. The MIC was defined as the concentration of the peptide in the well just preceding the first well showing visible turbidity. All experiments were performed in triplicate to ensure reliability.

Assay [3] concerns MRSA 2210187. It is filed as cell-based, methicillin-resistant Staphylococcus aureus. As to the method:
as §2

In assay [4] the test system is E. coli ATCC25922. It is filed as cell-based, Escherichia coli. As to the method:
as §2

Assay [5] deals with S. aureus ATCC25923. It is filed as cell-based, Staphylococcus aureus. As to the method:
as §2

Assay [6] relates to A. baumannii ATCC19606. It is filed as cell-based, Acinetobacter baumannii. As to the method:
as §2

For assay [7], the system named is CRPA 2403282. It is filed as cell-based, carbapenem-resistant P. aeruginosa. As to the method:
as §2

The subject of assay [8] is CRKP 2403276. It is filed as cell-based, carbapenem-resistant K. pneumoniae. As to the method: as §2
For assay [9], the system named is all eight bacterial strains. It is filed as cell-based, gram-positive and gram-negative bacteria. As to the method: as §2
The test system of assay [10] is CRAB. Also noted: method as in earlier work. Particulars: in vitro; cited from earlier work. From the text:
Using this validated AMP as a template, we performed sequence alignment with the National Center for Biotechnology Information (NCBI) database to identify encrypted AMPs.

Details of assay [11]: method as in earlier work. Particulars: cited from earlier work.
The test system of assay [12] is CRAB. Nature of the assay: Time-kill curve. It is filed as cell-based, carbapenem-resistant Acinetobacter baumannii. Particulars: ~10^5 CFU mL^−1 in MH broth. As to the method: as §1
Assay [13] deals with CRAB 2210186. As to the kind of experiment: Thigh infection mouse model. It is filed as in vivo, BALB/c mice. Particulars: neutropenic mice, ~1 × 10^6 CFU in thigh, i.p. at 1, 3, 5, 7 h post-infection (PL-15 10 × MIC, 100 µL; polymyxin B 20,000–25,000 U kg^−1 day^−1), n = 8. An excerpt: The WHO has classified CRAB as a “Critical Priority” pathogen in its Priority Pathogens List, recognizing it as a predominant causative agent of hospital-acquired infections ([2]). This classification reflects CRAB’s global dissemination, high mortality rates, and extreme resistance profiles. Given this critical situation, a thigh infection model was employed to evaluate the in vivo therapeutic efficacy of PL-15 against CRAB. To establish the mouse thigh infection model, mice were pre-treated intraperitoneally with cyclophosphamide 4 days and 1 day prior to bacterial inoculation to induce neutropenia, administered at doses of 150 mg kg^−1 and 100 mg kg^−1, respectively ([51]). Each mouse was then injected with approximately 10^6 colony-forming unit (CFU) of CRAB in the thigh tissue, followed by four intraperitoneal injections of PL-15, polymyxin B, or phosphate-buffered saline (PBS) within 24 h of infection (Fig. 3a).
All animal experiments were performed according to the “Principles of Laboratory Animal Care” (NIH publication No. 86-23, revised 1985) and approved by the Animal Care and Use Committee of Shandong University (LL20240622, Jinan, China). Five-week-old male BALB/c mice were purchased from Beijing Vital River Laboratory Animal Technology Co., Ltd. (Beijing, China) and kept under a 12-hour light/12-hour dark cycle, humidity of 50%, and temperature of 22°C in standard specific pathogen-free individually vented cages.
To establish the mouse thigh infection model, mice were injected intraperitoneally with cyclophosphamide 4 d and 1 d before bacterial administration, at concentrations of 150 and 100 mg kg^−1, respectively, to induce neutropenia ([51]). CRAB 2210186 cells were suspended in sterile PBS, adjusted to a concentration of ~1 × 10^6 CFU per infection site and injected into the right thighs of eight mice per treatment group. PL-15 (10 × MIC, 100 µL), polymyxin B (20,000–25,000 U kg^−1 day^−1) or PBS were administered intraperitoneally at 1, 3, 5, and 7 h post-infection. Mice were euthanized 24 h after infection, and the thigh tissues were aseptically collected, weighed, homogenized, serially diluted in PBS, and plated onto solid MCA. The CFU of CRAB 2210186 per thigh was calculated by plating dilutions of the thigh homogenates (0.25 g of thigh tissue in 10 mL sterile PBS) on agar plates and counting colonies.

The test system of assay [14] is CRAB. Nature of the assay: PI assay, cytoplasmic membrane integrity. It is filed as cell-based, carbapenem-resistant Acinetobacter baumannii. Particulars: 10 × MIC, 10^8 CFU mL^−1. As to the method:
PI (which is known to stain nuclear chromatin upon cell membrane disruption) assay was carried out to evaluate the ability of AMPs to disrupt the cytoplasmic membrane integrity ([63]). After CRAB was grown to the exponential phase, bacteria cells were harvested and washed three times in washing buffer of 5 mM glucose and 5 mM HEPES (1:1, pH = 7.2) and then re-adjusted to 10^8 CFU mL^−1 in the same buffer. Bacterial suspensions (150 µL/well) were loaded into black-walled, clear-bottom 96-well plates with lids. Following bacterial loading, 50 µL of 10 µM PI was introduced into each well, with 30 min pre-incubation CRAB. Post-incubation fluorescence signals were acquired using 535 nm excitation and 617 nm emission wavelengths. Compounds (10 µL) were then administered to achieve 1 × MIC/10 × MIC-equivalent final concentrations in the dye-loaded bacterial suspensions. Real-time fluorescence monitoring was performed with continuous acquisition during the first 10 min, followed by measurements at 10-min intervals. Negative controls received 10 µL sterile water in lieu of antimicrobial peptides while maintaining equivalent pre-incubation conditions. All experimental conditions were executed with three biological replicates.

In assay [15] the test system is CRAB. As to the kind of experiment: Biofilm formation inhibition assay (crystal violet). It is filed as cell-based, carbapenem-resistant Acinetobacter baumannii. Particulars: 1/2 × MIC, 24 h, OD570. As to the method: The crystal violet staining method ([66]) was used to determine the inhibitory activity of the compounds against the biofilm formation of CRAB. The steps were as follows: prepare a bacterial solution (10^6 CFU mL^−1), mix it with different final concentrations of the compound (1/2 × MIC, 1 × MIC, 2 × MIC, and 4 × MIC), and culture it for 24 h. After discarding the supernatant, wash with PBS, add anhydrous methanol to fix the biofilm, and then stain it with crystal violet for 60 min after drying. After washing, dissolve the biofilm with 33% glacial acetic acid, and measure OD570. Three parallel experiments were performed, and the biofilm formation inhibition rate was calculated by the following formula:
(3) Biofilm formation inhibition rate (%)=(1−OD(sample)− OD(blank)/OD(negative)− OD(blank))×100%

In assay [16] the test system is CRAB. As to the kind of experiment: Drug resistance assay, 20 passages. It is filed as cell-based, carbapenem-resistant Acinetobacter baumannii. Particulars: 20 passages at 0.5-fold MIC, n = 3. As to the method: Resistance development assays were performed following previous report ([43]). CRAB was cultured overnight at 37°C at 160 rpm in LB. In wells of a 96-well polypropylene flat-bottom plate, 5 µL of the overnight bacterial culture (10^7 CFU mL^−1) was added to 100 µL of peptides/antibiotic solutions (with final concentrations of 0.25 to 512 µg mL^−1) in MHB. Plates were incubated for 18 to 20 h at 37°C. The MIC, the lowest concentration of peptides/antibiotic that caused lack of visible bacterial growth, was determined for each bacterial species. Thereafter, 5 µL of the growth at the 0.5-fold MIC suspension (10^7 CFU mL^−1) was added to a fresh medium containing peptides/antibiotic, and these mixtures were incubated as described above. This was repeated for 20 passages. All experiments were performed in triplicate to ensure reliability.

Where [17] appears, read: MHB, ~10^5 CFU mL^−1, 37°C, 18–24 h, triplicate.

Read-outs that look alike come from different tables or passages of the source. No end group written: not given here. Bounds are passed on as bounds.

`CN[C@H](CC(C)C)C(=O)N[C@H]1C(=O)N[C@@H](CC(N)=O)C(=O)N[C@H]2C(=O)N[C@H]3C(=O)N[C@H](C(=O)N[C@H](C(=O)O)c4cc(O)cc(O)c4-c4cc3ccc4O)[C@H](O)c3ccc(c(Cl)c3)Oc3cc2cc(c3O[C@@H]2O[C@H](CO)[C@@H](O)[C@H](O)[C@H]2O[C@H]2C[C@](C)(N)[C@H](O)[C@H](C)O2)Oc2ccc(cc2Cl)[C@H]1O` [vancomycin, reference compound]: the “time to complete bacterial eradication of MRSA” value in assay [1] (1 × MIC) was not above 6 h. Moreover, the “time to full bacterial killing of MRSA” value in assay [1] (2 × MIC) and in assay [1] (4 × MIC) was not above 3 h each time.

The term MIC denotes the lowest concentration that inhibits growth of the organism. For GIGKFLKKAKKFGKAFVKILKK-NH2 [pexiganan], the minimal inhibitory concentration (MIC) result in assay [2] and in [3] (setting [17]) was “below 8 µg mL^−1” each time.

As for GIWKTIKSMGKVFAGKILQNL-NH2 [[D4K]B2RP], the MIC entry in assay [2] and in assay [3] (2210187) was “below 8 µg mL^−1” each time.

As for GLGSLLGKAFKIGLKTVGKMMGGAPREQ [CPF-B1], the MIC result in assay [2] (setting [17]) and in [3] (setting [17]) was “below 8 µg mL^−1” in each case.

GLLKPLLKIAAKVGSNLL-NH2 [[G4K]XT-7]: the MIC result in [2] and in assay [3] (2210187) was “below 8 µg mL^−1” in each case.

For GVIKSVLKGVAKTVALGML-NH2 [B2RP-Era], the minimum inhibitory concentration (MIC) result in assay [2] and in assay [3] (2210187) was “below 8 µg mL^−1” in each case.

As to “ILGKLLKTAAKLLSNL [[S7K,G11K]alyteserin-2a]”, the MIC result in assay [2] (setting [17]) and in assay [3] (2210187) was “below 8 µg mL^−1” in each case.

Regarding “LKLSPKTKDTLKKVLKGAIKGAIAIASMA-NH2 [hymenochirin-1Pa]”, the minimal inhibitory concentration (MIC) result in [2] and in assay [3] (2210187) was “below 8 µg mL^−1” throughout.

For the compound WLKKILAWLKKKW [BR-13], the MIC entry was “lower than 11 µg mL^−1” in [4]; “lower than 11 µg mL^−1” in [5]; “lower than 11 µg mL^−1” in assay [6]; 18.67 µg/mL in assay [2]; 3.33 µg/mL in [3] (2210187); 64 µg/mL in assay [7]. Moreover, the MIC entry in assay [8] was “lower than 11 µg mL^−1”. Moreover, the “MIC for all tested bacteria” value in assay [9] is not above 64 µg/mL. For the same compound, the antimicrobial spectrum result in [9] (judged from MICs on eight strains) is reported as “broad-spectrum antimicrobial properties”.

For the compound “WLKKILKWLKW [g_AMP41, short peptide … generated by AMPGenix, used as template]”, in assay [10], the minimum inhibitory concentration (MIC) is 8 µg/mL. Besides, the “efficacy in treating infections in vivo” value in assay [11] was “suboptimal efficacy”.

Take polymyxin B [reference compound]: the “time to complete bacterial eradication of CRAB” value in assay [12] (2 × MIC) is given as 6 h. Also, the “time to kill CRAB” value in [12] (4 × MIC) was not above 3 h. The “reduction of bacterial load compared to the PBS control group” value in assay [13] (24 h) is on record as “two orders of magnitude”. In assay [13], the “bacteria eradicated in the thigh tissue within 24 h” value is “over 97%”. Also, in assay [14], the “PI fluorescence (cytoplasmic membrane integrity)” value is recorded as “strongest fluorescence response”. In assay [15], the biofilm formation inhibition entry is recorded as “moderate biofilm inhibition”. In addition, the “MIC change after serial passaging” value in assay [16] was determined as 64 fold.

The values are drawn from PMC12502564, “Evaluation of LLM-generated peptide as foundation template for discovery of effective encrypted AMPs against clinical superbugs” (Microbiology Spectrum, 2025).
